We go through one compound from patent US20160113900A1, “INHIBITORS OF MITOCHONDRIAL STAT3 AND USES THEREOF IN MODULATION OF MAST CELL EXOCYTOSIS” (Yissum Research Development Company of the Hebrew …, priority 2014, published 2016).

For data set [1], the system named is RBL cells. Kind of data set: β-Hexosaminidase release assay (degranulation) in RBL cells. In kind it is cell-based, rat. The conditions noted are these: RBL cells. On the procedure:
(§1) RBL-2H3 cells were maintained in RPMI 1640 medium as previously described1. Bone marrow was isolated from 5-6 week-old mice, and BMMC were cultured in RPMI medium supplemented with 20 ng/ml interleukin-3 (IL-3) and 20 ng/ml SCF as previously described2, 3. Cells were generally grown for a minimum of 4 weeks and used when >90% of the population expressed FcεRI. BMMC and RBL cells were sensitized first with anti-DNP IgE monoclonal antibody (SPE-7; Sigma-Aldrich Corp.) and then challenged with DNP-BSA (Sigma-Aldrich Corp.). IgE antibody was centrifuged (18,000 g, 5 min) before use to remove aggregates. […] For glycolysis elimination cells were maintained in glucose-free RPMI supplemented with 10% dialyzed fetal calf serum and 5 mM galactose.
1×104 RBL or 3×104 BMMC were immunologically activated as described above. After IgE incubation, the cells were washed three times with 5 mL of degranulation buffer (NaCl 130 mM, KCl 5 mM, Glucose 5.6 mM, MgCl2 1 mM, CaCl2 1.2 mM, Hepes pH 7.4 10 mM, BSA 0.1%) and resuspended in 200 μL of the same buffer with DNP-albumin for 30 min. The release of β-hexosaminidase was determined in triplicates in a 96-well plate. Aliquots (20 μL) of supernatants and cell lysates were incubated for 30 minutes with 100 μL of substrate solution (1.3 mg/mL p-nitrophenyl-b-D-2-acetamido-2-deoxyglucopyranozide in 0.1 M citrate [pH 4.51]). The reaction was stopped by the addition of 200 μL of 0.2 M glycine (pH 10.7). The plate OD was read in an enzyme-linked immunosorbent assay (ELISA) reader at a wavelength of 405 nm Percent release values for each experimental condition were calculated3.

Data set [2] concerns succinate cytochrome c reductase (complex 2+3). Description: ETC complex activity analysis in treated RBL cells: complex 2+3. In kind it is cell-based, rat. The conditions noted are these: 60 μM Stattic, 30 min, ratio to citrate synthase. On the procedure:
(§2) The enzymatic activities of respiratory chain complexes were measured at 37° C. by standard spectrophotometric methods as previously described5, 6. Briefly, complex II was measured as succinate dehydrogenase (SDH) based on the succinate-mediated phenazine methosulfate reduction of dichloroindophenol at 600 nm Complex 2+3 were measured as succinate cytochrome c reductase and after the reduction of oxidized cytochrome c at 550 nm. Complex 4 (cytochrome c oxidase) was measured by following the oxidation of reduced cytochrome c at 550 nm.
(§3) Citrate synthase (CS), an ubiquitous mitochondrial matrix enzyme, serving as a control, was measured in the presence of acetylCoA and oxaloacetate by monitoring the liberation of CoASH coupled to 5′,5′-dithiobis(2-nitrobenzoic) acid at 412 nm. Activities are presented as a ratio to CS. Protein concentration was determined by the Lowry method and calculated according to a bovine serum albumin (BSA) standard curve.

Data set [3] relates to cytochrome c oxidase (COX, complex 4). Description: ETC complex activity analysis in treated RBL cells: complex 4. The note with it: 60 μM Stattic, 30 min. In kind it is cell-based, rat. The protocol: as §2, §3
Data set [4] deals with caspase3. Description: Western blot of caspase3 / cleaved caspase3 (apoptosis) in RBL cells. The conditions noted are these: activated RBL cells, 60 μM Stattic. In kind it is cell-based, rat. On the procedure:
RBL cells and mitochondrial pellets were lysed by the addition of lysis buffer (50 mM Tris-HCl pH 7.4, 1% Nonidet P-40, 0.25% Na-deoxycholate, 150 mM NaCl, 1 mM EDTA, 1 mM PMSF) supplemented with 15 μl protease inhibitor (Sigma-Aldrich). Cells and mitochondria were vortexed and incubated on ice for 15 min. The lysates were then centrifuged at 14,000 g for 15 min and pellets were discarded. The protein concentration of each sample was determined using Bradford Reagent (Sigma-Aldrich). Proteins were resolved by 10-15% SDS-PAGE under reducing conditions and transferred to polyvinylidene difluoride membranes (Millipore Billerica, Ma). The membranes were incubated in 5% fat-free milk and TBST (10 mM Tris-HCl, pH 7.4, 150 mM NaCl, 0.1% Tween 20) for 1 h and then in 5% BSA and TBST containing various dilutions of primary Abs for 18 h at 4° C. The membranes were washed three times with TBST for 5 mM before and after each incubation with secondary Ab. The proteins were detected with the appropriate secondary Ab (1 h; room temperature) coupled to HRP-conjugated goat anti-rabbit or anti-mouse Ab and visualized by chemiluminescence according to the manufacturer's instructions (Pierce).

The subject of data set [5] is RBL cells. Kind of data set: ATP determination (ATPLite luminescence) in RBL cells. In kind it is cell-based, rat. The note with it: RBL cells, 60 μM Stattic, 20 min. The protocol:
as §1
ATP levels were measured using the ATPLite luminescence-based assay according to the manufacturer's instructions (Perkin Elmer, Waltham, Mass., USA).
On the technique in general: Cellular ATP, detected with luciferase, serves as a proxy for viable cell number.

Data set [6] deals with plasma histamine. Description: In vivo histamine release assay, passive systemic IgE-mediated anaphylaxis model. On the procedure:
C3H 6-7 week male and female WT mice were purchased from Jackson Lab (Cambridge, Mass., USA), mice were fed a regular diet and with drinking water ad libitum. Experiments were approved by The Hebrew University Ethical Committee for Animal Experimentation.
WT C3H mice were sensitized with 3 μg murine IgE anti-DNP mAb SPE-7 by means of intravenous injection in the tail vein. Twenty-four hours later, mice were treated with 40 mg/kg of static dissolved in corn oil or corn oil alone for 2.5 hours, then mice were challenged with i.v. injection of DNP-BSA (250 μg per mouse). 100 μl of blood was collected immediately and added to an equal volume of pre-cold Alsever's Solution. Blood was centrifuged 2000 g for […] and plasma supernatant was collected. Plasma histamine levels were determined by using competitive ELISA (IBL International Gmbh, Hamburg, Germany).
STAT3's role in vivo was investigated by evaluating the response to allergic stimulation in Stattic-treated mice. The passive systemic IgE-mediated anaphylaxis model was used. Mice were injected (i.v.) with IgE anti-DNP. Twenty four hours later they were injected (i.p.) with Stattic (80 mg/kg) or corn oil which was used as control. Three and a half hours later the mice were challenged with DNP-BSA for 1.5 minutes. Plasma was collected, and histamine levels were measured by competitive ELISA. Histamine secretion in Stattic-treated mice was 43% less than that in control mice (FIG. 17, p<0.05).
Mitocur-1/3 effectiveness in vivo was investigated by evaluating the response to allergic stimulation in Mitocur-1/3-treated mice. The passive systemic IgE-mediated anaphylaxis model was used. Mice were injected (i.v.) with IgE anti-DNP. Twenty four hours later they were injected (i.p.) with Mitocur-1 (80 mg/kg) and Mitocur-3 (40 mg/kg). Corn oil was used as control. Three and a half hours later the mice were challenged with DNP-BSA for 1.5 minutes. Plasma was collected, and histamine levels were measured by competitive ELISA. Histamine secretion in Mitocur-1-treated mice was 35% less than that in control mice (FIG. 22A, p<0.05).

For the compound `O=[N+]([O-])c1ccc2c(c1)S(=O)(=O)C=C2` [Stattic, 6-Nitrobenzo[b]thiophene 1,1-dioxide, reference compound], the degranulation result in data set [1] (5 min incubation with Stattic (data not shown)) is given as “totally abolished”. In data set [1] (IgE/DNP-BSA, 60 μM Stattic 20 min), the β-hexosaminidase release entry is “completely abolished”. The “effect on IgE-Ag mediated β-hexosaminidase release, dependence on concentration” value in data set [1] (stated concentrations of Stattic (FIG. 6)) is listed as “concentration dependent”. For the same compound, the “reduction in complex 2+3 activity” value in data set [2] is 50.8±6.1%. Further, the “change in cytochrome c oxidase (COX, complex 4) activity” value in data set [3] is given as “No significant change”. In data set [4], the “caspase3 levels (apoptosis)” value is given as “no change”. Further, the “reduction in ATP levels” value in data set [5] came out at 72.0±9.0%. The “histamine secretion less than in control mice” value in data set [6] (Stattic 80 mg/kg i.p., 3.5 h before DNP-BSA challenge) was 43%. Moreover, the “decrease in histamine secretion” value in data set [6] (mice, Stattic 40 mg/kg, after two and a half hours (data not shown)) is 32.4%.
